Experiments:
[1] = molecular target: KDR (h) (VEGFR2) (Homo sapiens (Human), UniProt P35968); assay: KDR (VEGFR2) (enzymatic assay), TR-FRET; format: biochemical; conditions: 3 μM ATP; read-out: VEGFR KDR pIC50 (converted)
[2] = system: Ba/F3-FGFR1-transfected cells; assay: cells; conditions: read-out: BAF3-FGFR1 (MIN IL3 pIC50) (converted)
[3] = system: Ba/F3-FGFR4-transfected cells; assay: cells; conditions: read-out: BAF3-FGFR4 (pIC50) (converted)
[4] = system: Ba/F3-KDR-transfected cells; assay: cells; conditions: read-out: BAF3-KDR (MIN IL3 pIC50) (converted)

Sequence of KDR (h) (VEGFR2) (P35968 20-1356): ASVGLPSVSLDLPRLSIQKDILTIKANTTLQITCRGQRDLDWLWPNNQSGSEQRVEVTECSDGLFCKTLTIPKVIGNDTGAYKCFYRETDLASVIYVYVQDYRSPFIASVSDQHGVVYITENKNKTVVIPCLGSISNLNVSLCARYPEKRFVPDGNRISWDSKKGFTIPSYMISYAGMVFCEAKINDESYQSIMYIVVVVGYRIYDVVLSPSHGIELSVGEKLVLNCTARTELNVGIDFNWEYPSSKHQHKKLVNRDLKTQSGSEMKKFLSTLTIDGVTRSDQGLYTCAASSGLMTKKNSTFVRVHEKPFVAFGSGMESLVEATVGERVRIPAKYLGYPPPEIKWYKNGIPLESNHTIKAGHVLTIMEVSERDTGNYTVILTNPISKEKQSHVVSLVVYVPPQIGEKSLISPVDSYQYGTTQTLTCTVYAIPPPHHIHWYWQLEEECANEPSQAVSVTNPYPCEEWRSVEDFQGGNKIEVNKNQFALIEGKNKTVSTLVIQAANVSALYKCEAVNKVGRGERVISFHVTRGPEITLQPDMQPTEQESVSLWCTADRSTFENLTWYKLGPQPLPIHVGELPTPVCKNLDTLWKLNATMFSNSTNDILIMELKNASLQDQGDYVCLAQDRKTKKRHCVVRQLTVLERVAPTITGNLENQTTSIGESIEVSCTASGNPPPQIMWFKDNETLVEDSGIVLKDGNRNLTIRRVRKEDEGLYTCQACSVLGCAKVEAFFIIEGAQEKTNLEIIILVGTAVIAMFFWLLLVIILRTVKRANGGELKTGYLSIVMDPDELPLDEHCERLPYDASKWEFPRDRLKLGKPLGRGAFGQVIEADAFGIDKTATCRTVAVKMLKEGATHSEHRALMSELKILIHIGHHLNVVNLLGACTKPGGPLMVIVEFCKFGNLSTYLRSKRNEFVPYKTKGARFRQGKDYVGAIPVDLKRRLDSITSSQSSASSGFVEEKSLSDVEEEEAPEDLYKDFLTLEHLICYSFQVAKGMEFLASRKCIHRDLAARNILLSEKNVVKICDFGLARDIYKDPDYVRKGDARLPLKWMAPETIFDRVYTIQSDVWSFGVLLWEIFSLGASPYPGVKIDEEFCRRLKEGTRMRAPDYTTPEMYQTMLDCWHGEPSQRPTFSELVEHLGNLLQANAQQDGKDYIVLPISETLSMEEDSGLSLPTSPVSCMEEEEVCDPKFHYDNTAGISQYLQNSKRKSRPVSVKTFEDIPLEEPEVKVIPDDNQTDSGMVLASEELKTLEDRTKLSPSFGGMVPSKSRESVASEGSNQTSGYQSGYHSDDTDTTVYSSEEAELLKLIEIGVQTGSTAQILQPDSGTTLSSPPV

| IC50 [1] | IC50 [2] | IC50 [3] | SMILES | IC50 [4] |
| --- | --- | --- | --- | --- |
| 100 nM | – | – | COc1cc(OC)c(F)c(N(Cc2nccn2S(=O)(=O)N(C)C)c2ncc3ncc(-c4cnn(C)c4)nc3n2)c1F [Compound 1] | – |
| 25.1 nM | 6.31 nM | 25.1 nM | COc1cc(OC)c(F)c(N(Cc2ncc[nH]2)c2ncc3ncc(-c4cnn(C)c4)nc3n2)c1F [Compound 2] | – |
| 1000 nM | – | – | COc1cc(OC)c(F)c(N(C[C@H]2CCC(=O)N2)c2ncc3ncc(-c4cnn(C)c4)nc3n2)c1 [Compound 10] | – |
| > 1000 nM | – | – | COc1cc(OC)c(F)c(N(C[C@@H]2CCC(=O)N2)c2ncc3ncc(-c4cnn(C)c4)nc3n2)c1 [Compound 11] | – |
| 251 nM | – | – | COc1cc(OC)c(F)c(N(Cc2ncc[nH]2)c2ncc3ncc(-c4cnn(C)c4)nc3n2)c1 [Compound 13] | – |

Second part, the compound before the results:

| SMILES | IC50 [1] | IC50 [2] | IC50 [3] | IC50 [4] |
| --- | --- | --- | --- | --- |
| COc1cc(OC)cc(N(CCO)c2ncc3ncc(-c4cnn(C)c4)nc3n2)c1 [Compound 3] | > 1000 nM | – | – | > 10000 nM |
| COc1cc(OC)cc(N(CCO)c2ncc3ncc(-c4ccccc4)nc3n2)c1 [Compound 4] | – | – | – | > 10000 nM |
| COc1cc(OC)cc(N(CC2CC2)c2ncc3ncc(-c4ccccc4)nc3n2)c1 [Compound 7] | > 1000 nM | – | – | > 10000 nM |
| COc1cc(OC)c(F)c(N(C[C@@H]2CCC(=O)N2)c2ncc3ncc(-c4cnn(C)c4)nc3n2)c1F [Compound 8] | 794 nM | – | – | > 10000 nM |
| CNCCN(c1ncc2ncc(-c3cnn(C)c3)nc2n1)c1c(F)c(OC)cc(OC)c1F [Compound 9] | 398 nM | – | – | 2510 nM |

— US10272087B2, “Pteridines as FGFR inhibitors” (ASTEX THERAPEUTICS LIMITED, priority 2012, dated 2019)
